In brackets after ≈: the same amount, converted by molar mass. Several values for one entry are separate records, joined by “and”; a condition that tells them apart may be missing. Equal values may be shown once.
Assays:
[1] = Toxicity, dose escalation study in mice; conditions: C57BL/6, mouse, in vivo
Protocol: Toxicity was assessed using a dose escalation study. This study was performed with ten C57BL/6 mice per candidate. Every two days, the mice were administered an increased concentration of the drug, and monitored for detrimental effects. The administration scheme was 50, 100, 200, 400, 600, 800 and 1000 mg/kg.

[2] = tested on: M. tuberculosis H37Rv; assay: Standard chronic mouse model of tuberculosis, CFU in lung; type: in vivo, C57BL/6 female mice
[3] = tested on: M. avium; assay: Spectrum (unpublished data); type: cell-based
[4] = Maximum tolerated dose, one-time gavage dose in mice; type: in vivo
Protocol: […] Each dose of each compound consisted of one group of 3 mice. Monitoring of the mice was done twice a day for the duration of the experiment. […] The MTD (mg/kg) is the highest dose that results in no lethality/tissue abnormality.
• 1. […] The compounds are dissolved in the appropriate concentration of ethanol in distilled water and administered in a volume of 0.2 ml per mouse. • 2. Observation of mice: Mice will be observed 4 and 6 hours post administration, then twice daily for one week. Survival and body weight of mice will be closely monitored throughout the study. • 3. […] Critical organs will be aseptically removed and observed; tissues from the liver, heart, and kidneys are extracted and placed into 10% formalin solution. These fixed tissues are sectioned and examined for abnormalities resulting from drug toxicity.

[5] = tested on: sigma receptor (sigma non-selective); assay: CEREP receptor binding, sigma; conditions: tested at 10 μM
Text: (§1) In vitro testing for safety pharmacology and early ADMET (Absorption, Distribution, Metabolism, Excretion, Toxicity) studies of compound 109 were contracted out to CEREP (15318 NE 95th Street, Redmond, Wash., 98052, USA www.cerep.com) under a service agreement and included evaluation of inhibitory binding to a panel of 27 standard receptors and three transporters (See FIG. 60 (Table 31) and FIG. 61 (Table 32)) which included: adenosine receptors (A1 and A2A), adrenergic receptors (alpha 1, alpha 2, beta 1), angiotensin II receptor (AT1), benzodiazapene receptor (BZD), bradykinin receptor (B2), cholecystokinin receptor (CCK1), dopamine receptors (D1, D2S), endothelin receptor (ETA), GABA receptor (GABA), glutamate receptor (NMDA), histamine receptor (H1 central), melanocortin receptor (MC4), muscarinic receptor (M, non-selective), neurokinin receptor (NK1), neuropeptide Y receptor (Y), nicotinic receptor (neuronal, alpha-BGTX-insensitive), opiate receptor (non-selective opiate), orphanin receptor (ORL1), phencyclidine receptor (PCP), serotonin receptor (5-HT), sigma receptor (sigma non-selective), steroid receptor (glucocorticoid receptor, GR), and NE, DA, and 5-HT transporters.
(§2) The specific ligand binding to the receptors is defined as the difference between the total binding and the nonspecific binding determined in the presence of an excess of unlabelled ligand.

[6] = tested on: M. tuberculosis [MTB]; assay: Spectrum of activity MIC, BACTEC 460 TB system; type: cell-based; conditions: Mycobacterium tuberculosis
[7] = tested on: Propionibacterium acnes, Bacteroides fragilis, and Clostridium difficile; assay: Spectrum of activity MIC (NCCLS), anaerobes; type: cell-based
Protocol: Compound 109 was tested against a representative panel of commonly encountered clinical microorganisms comprising opportunistic pathogens, target pathogens and normal human flora. The spectrum of activity of compound 109 was evaluated by performing antimicrobial susceptibility testing against a collection of aerobic and anaerobic bacteria, fungi, and mycobacteria. MICs for all organisms were established using the appropriate NCCLS (National Committee for Clinical Laboratory Standards) recommended standard methods and quality control strains.

[8] = tested on: M. chelonae group (M. chelonae and M. abscessus); assay: Spectrum of activity MIC, rapid-grower, broth microdilution (NCCLS M24-A); type: cell-based; conditions: Mycobacteroides chelonae; three strains tested
[9] = target: T1, Serotonin 5-HT transporter (Homo sapiens, UniProt P31645); assay: CEREP transporter binding, 5-HT; conditions: tested at 10 μM; read-out: inhibition of control specific binding
T1 construct: CEREP (contract testing)
Text: as §1, §2

[10] = tested on: Candida albicans; assay: Spectrum of activity MIC, broth microdilution NCCLS M27-A2 (yeast); type: cell-based
Protocol: Compound 109 was tested against a representative panel of commonly encountered clinical microorganisms comprising opportunistic pathogens, target pathogens and normal human flora. The spectrum of activity of compound 109 was evaluated by performing recommended broth microdilution methods. NCCLS M27-A2, 2003 for yeast and NCCLS M38-A, 2003 for mold.

T1 sequence (P31645 whole entry): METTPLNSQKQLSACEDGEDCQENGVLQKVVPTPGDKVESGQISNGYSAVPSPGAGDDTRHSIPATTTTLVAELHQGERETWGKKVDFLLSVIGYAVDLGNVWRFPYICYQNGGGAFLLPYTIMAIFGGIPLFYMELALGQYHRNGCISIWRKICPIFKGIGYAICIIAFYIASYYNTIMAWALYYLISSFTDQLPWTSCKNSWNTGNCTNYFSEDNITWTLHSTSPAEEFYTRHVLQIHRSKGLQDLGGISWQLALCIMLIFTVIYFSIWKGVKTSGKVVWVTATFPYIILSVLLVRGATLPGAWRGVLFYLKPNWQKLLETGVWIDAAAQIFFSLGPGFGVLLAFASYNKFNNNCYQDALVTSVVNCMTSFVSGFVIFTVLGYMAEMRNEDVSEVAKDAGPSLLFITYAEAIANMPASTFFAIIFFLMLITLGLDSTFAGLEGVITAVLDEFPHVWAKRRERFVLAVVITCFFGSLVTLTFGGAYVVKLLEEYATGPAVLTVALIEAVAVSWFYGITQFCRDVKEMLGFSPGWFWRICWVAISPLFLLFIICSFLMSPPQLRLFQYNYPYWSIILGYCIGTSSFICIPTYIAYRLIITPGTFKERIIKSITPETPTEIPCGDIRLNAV

CC(C)=CCC/C(C)=C/CNCCNC1C2CC3CC(C2)CC1C3 (stereo not shown) [Compound 109, N-Geranyl-N′-(2-adamanthyl)ethane-1,2-diamine]
tolerated dose [1]: 800 mg/kg | CFU in lung ([2]; INH+RIF+SQ109 at 25, 20 and 10 mg/kg, wk 4): 3.2 log10CFU | CFU in lung ([2]; SQ109 by itself, 4 week therapy, control untreated 8.1): 6.6 log10CFU | CFU in lung ([2]; combination SQ109+RIF at 10 and 20 mg/kg, 4 week therapy): 4.8 log10 | activity [3]: much less active | Mice ([4]; 109 as HCl salt at 800 mg/kg, day 1): 3 | Mice ([4]; 109 as HCl salt at 800 mg/kg, day 2): 2/1 | Mice ([4]; 109 as HCl salt at 800 mg/kg, day 3): 1/1 | Mice ([4]; 109 as HCl salt at 800 mg/kg, day 4): 1 | Mice ([4]; 109 as HCl salt at 800 mg/kg, day 5): 1 | Mice ([4]; 109 as HCl salt at 800 mg/kg, day 6): 1 | Mice ([4]; 109 as HCl salt at 800 mg/kg, day 7): 1 | Day of death ([4]; 109 as HCl salt at 800 mg/kg, 800 mg/kg): 2 and 3 | Mice ([4]; 109 as TFA salt at 800 mg/kg, day 1): 1 | Mice ([4]; 109 as TFA salt at 800 mg/kg, day 2): 1 | Mice ([4]; 109 as TFA salt at 800 mg/kg, day 3): 1 | Mice ([4]; 109 as TFA salt at 800 mg/kg, day 4): 1 | Mice ([4]; 109 as TFA salt at 800 mg/kg, day 5): 1 | Mice ([4]; 109 as TFA salt at 800 mg/kg, day 6): 1 | Mice ([4]; 109 as TFA salt at 800 mg/kg, day 7): 1 | Mice ([4]; 109 at 100 mg/kg, day 1): 3 | Mice ([4]; 109 at 100 mg/kg, day 2): 3 | Mice ([4]; 109 at 100 mg/kg, day 3): 3 | Mice ([4]; 109 at 100 mg/kg, day 4): 3 | Mice ([4]; 109 at 100 mg/kg, day 6): 3 | Mice ([4]; 109 at 100 mg/kg, day 7): 3 | Mice ([4]; 109 at 300 mg/kg, day 1): 3 | Mice ([4]; 109 at 300 mg/kg, day 2): 3 | Mice ([4]; 109 at 300 mg/kg, day 3): 3 | Mice ([4]; 109 at 300 mg/kg, day 4): 3 | Mice ([4]; 109 at 300 mg/kg, day 6): 3 | Mice ([4]; 109 at 300 mg/kg, day 7): 3 | Mice ([4]; 109 at 600 mg/kg, day 1): 3 | Mice ([4]; 109 at 600 mg/kg, day 2): 3 | Mice ([4]; 109 at 600 mg/kg, day 3): 3 | Mice ([4]; 109 at 600 mg/kg, day 4): 3 | Mice ([4]; 109 at 600 mg/kg, day 6): 3 | Mice ([4]; 109 at 600 mg/kg, day 7): 3 | Mice ([4]; 109 at 1000 mg/kg, day 1): 3 | Mice ([4]; 109 at 1000 mg/kg, day 2): 2 | Mice ([4]; 109 at 1000 mg/kg, day 3): 2 | Mice ([4]; 109 at 1000 mg/kg, day 4): 1 | Mice ([4]; 109 at 1000 mg/kg, day 6): 0 | MTD at 1 week ([4]; female, C57BL/6, mouse, in vivo, po, one-time dose by gavage): 600 mg/kg | changes in organs ([4]; mice surviving one week): No visible changes in organs | fatal dose ([4]; one-time dose, two of 3 mice died within 3 days): 800 mg/kg | inhibition of control specific binding [5]: 106% | MIC [6]: 0.25 to 0.5 µg/mL (≈ 0.756 to 1.51 µM) | MIC [7]: 16 to 64 µg/mL (≈ 48.4 to 194 µM) | MIC [8]: 16 µg/mL (≈ 48.4 µM) | inhibition at 10 µM [9]: 95% | MIC [10]: 4 to 8 µg/mL (≈ 12.1 to 24.2 µM)

Reference: patent US8202910B2 (Sequella, Inc., priority 2006, dated 2012)
